Consider seven cell lines from the supplement of paper PMC10307832.

Common to all, as to assay: relative viability (nuclei count vs DMSO), 5 days (fraction); higher = more cells survive
Compound in test [1]: OCc1c[nH]c2ccccc12 [Indole-3-carbinol] + CC1(C)CCC(c2ccc(Cl)cc2)=C(CN2CCN(c3ccc(C(=O)NS(=O)(=O)c4ccc(N[C@H](CCN5CCOCC5)CSc5ccccc5)c(S(=O)(=O)C(F)(F)F)c4)cc3)CC2)C1 [Navitoclax] (partner 0.5 µM)
In a few lines:
(§1)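 One day after seeding in 1536-well plates, lung cancer cell lines were dosed by pin tool. Dosing was either single-drug or a fixed anchor-drug dose plus five library-drug doses (not always all listed) in √10 steps. After 5 days, nuclei were stained in one fix-and-stain step and counted on 4× images, and relative viability is the nuclei count of treated wells over that of vehicle wells, given as the median of duplicate plates.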

Compound in test [2]: OCc1c[nH]c2ccccc12 [Indole-3-carbinol] + COc1cc2c(Oc3ccc(NC(=O)C4(C(=O)Nc5ccc(F)cc5)CC4)cc3F)ccnc2cc1OCCCN1CCOCC1 [Foretinib] (partner 0.25 µM)
In a few lines:
as §1

Compound in test [3]: OCc1c[nH]c2ccccc12 [Indole-3-carbinol] + Cc1nc(Nc2ncc(C(=O)Nc3c(C)cccc3Cl)s2)cc(N2CCN(CCO)CC2)n1 [Dasatinib] (partner 0.075 µM)
In a few lines: as §1

Compound in test [4]: OCc1c[nH]c2ccccc12 [Indole-3-carbinol] + Nc1ncn([C@H]2C[C@H](O)[C@@H](CO)O2)c(=O)n1 [Decitabine] (partner 2 µM)
In a few lines:
as §1

Compound in test [5]: OCc1c[nH]c2ccccc12 [Indole-3-carbinol] + O=C(c1cc(Cc2n[nH]c(=O)c3ccccc23)ccc1F)N1CCN(C(=O)C2CC2)CC1 [Olaparib] (partner 8 µM)
An outline of the steps: as §1

Regarding LXF-289, the relative viability was found to be 0.966 in test [1] (first compound 0.253 µM); 0.96 in test [1] (first compound 0.8 µM); 0.904 in test [1] (first compound 2.53 µM); 0.927 in test [1] (first compound 8 µM); 0.973 in test [2] (first compound 0.253 µM); 0.978 in test [2] (first compound 0.8 µM). Besides, the relative viability in test [2] (first compound 2.53 µM) is 0.968; in test [2] (first compound 8 µM), 0.945; in test [3] (first compound 0.253 µM), 0.256; in test [3] (first compound 0.8 µM), 0.229; in test [3] (first compound 2.53 µM), 0.258; in test [3] (first compound 8 µM), 0.203. Further, the relative viability in test [4] (first compound 0.253 µM) was 0.383; in test [4] (first compound 0.8 µM) it was 0.324; in test [4] (first compound 2.53 µM) it was 0.362; in test [4] (first compound 8 µM) it was 0.369; in test [5] (first compound 0.253 µM) it was 1.24; in test [5] (first compound 0.8 µM) it was 1.09. In addition, the relative viability in test [5] (first compound 2.53 µM) is 1.09; in test [5] (first compound 8 µM), 1.08.

Regarding NCI-H727, the relative viability in test [1] (first compound 0.253 µM) is 0.359; in test [1] (first compound 0.8 µM) it was 0.355; in test [1] (first compound 2.53 µM), 0.364; in test [1] (first compound 8 µM), 0.497; in test [2] (first compound 0.253 µM), 0.744; in test [2] (first compound 0.8 µM), 0.891. The relative viability in test [2] (first compound 2.53 µM) came to 1.05; in test [2] (first compound 8 µM), 0.886; in test [3] (first compound 0.253 µM), 0.365; in test [3] (first compound 0.8 µM), 0.408; in test [3] (first compound 2.53 µM), 0.294; in test [3] (first compound 8 µM), 0.306. For the same cell line, the relative viability in test [4] (first compound 0.253 µM) came to 0.997; in test [4] (first compound 0.8 µM), 0.782; in test [4] (first compound 2.53 µM), 0.884; in test [4] (first compound 8 µM), 0.825; in test [5] (first compound 0.253 µM), 0.616; in test [5] (first compound 0.8 µM), 0.694. Further, the relative viability in test [5] (first compound 2.53 µM) is 0.657; in test [5] (first compound 8 µM), 0.634.

For NCI-H1437, the relative viability came out at 1.15 in test [1] (first compound 0.253 µM); 1.14 in test [1] (first compound 0.8 µM); 1.18 in test [1] (first compound 2.53 µM); 1.03 in test [1] (first compound 8 µM); 1.29 in test [2] (first compound 0.253 µM); 1.34 in test [2] (first compound 0.8 µM). Moreover, the relative viability in test [2] (first compound 2.53 µM) was found to be 1.24; in test [2] (first compound 8 µM) it was 1.2; in test [3] (first compound 0.253 µM) it was 0.386; in test [3] (first compound 0.8 µM) it was 0.445; in test [3] (first compound 2.53 µM), 0.35; in test [3] (first compound 8 µM) it was 0.541. Further, the relative viability in test [4] (first compound 0.253 µM) is 0.591; in test [4] (first compound 0.8 µM) it was 0.599; in test [4] (first compound 2.53 µM) it was 0.599; in test [4] (first compound 8 µM), 0.591; in test [5] (first compound 0.253 µM), 0.65; in test [5] (first compound 0.8 µM) it was 0.675. In addition, the relative viability in test [5] (first compound 2.53 µM) came out at 0.639; in test [5] (first compound 8 µM) it was 0.619.

Take RERF-LC-KJ: the relative viability in test [1] (first compound 0.253 µM) worked out at 1.12; in test [1] (first compound 0.8 µM), 0.907; in test [1] (first compound 2.53 µM), 0.971; in test [1] (first compound 8 µM), 1.04; in test [2] (first compound 0.253 µM), 0.873; in test [2] (first compound 0.8 µM), 0.932. Also, the relative viability was 0.815 in test [2] (first compound 2.53 µM); 0.819 in test [2] (first compound 8 µM); 0.815 in test [3] (first compound 0.253 µM); 0.842 in test [3] (first compound 0.8 µM); 0.846 in test [3] (first compound 2.53 µM); 0.762 in test [3] (first compound 8 µM). In addition, the relative viability was found to be 0.741 in test [4] (first compound 0.253 µM); 0.69 in test [4] (first compound 0.8 µM); 0.716 in test [4] (first compound 2.53 µM); 0.62 in test [4] (first compound 8 µM); 0.878 in test [5] (first compound 0.253 µM); 0.93 in test [5] (first compound 0.8 µM). Further, the relative viability in test [5] (first compound 2.53 µM) came to 0.957; in test [5] (first compound 8 µM) it was 0.801.

For the cell line EPLC-272H, the relative viability in test [1] (first compound 0.253 µM) turned out to be 1.32; in test [1] (first compound 0.8 µM), 1.08; in test [1] (first compound 2.53 µM), 1.26; in test [1] (first compound 8 µM) it was 0.988; in test [2] (first compound 0.253 µM), 0.67; in test [2] (first compound 0.8 µM) it was 0.72. Besides, the relative viability came to 0.724 in test [2] (first compound 2.53 µM); 0.709 in test [2] (first compound 8 µM); 0.44 in test [3] (first compound 0.253 µM); 0.406 in test [3] (first compound 0.8 µM); 0.403 in test [3] (first compound 2.53 µM); 0.387 in test [3] (first compound 8 µM). The relative viability in test [4] (first compound 0.253 µM) is 0.364; in test [4] (first compound 0.8 µM), 0.359; in test [4] (first compound 2.53 µM), 0.388; in test [4] (first compound 8 µM), 0.356; in test [5] (first compound 0.253 µM) it was 0.894; in test [5] (first compound 0.8 µM), 0.993. For the same cell line, the relative viability is 0.627 in test [5] (first compound 2.53 µM) and 0.914 in test [5] (first compound 8 µM).

Turning to NCI-H596, the relative viability came out at 0.977 in test [1] (first compound 0.253 µM); 1.02 in test [1] (first compound 0.8 µM); 0.921 in test [1] (first compound 2.53 µM); 0.826 in test [1] (first compound 8 µM); 0.921 in test [2] (first compound 0.253 µM); 0.885 in test [2] (first compound 0.8 µM). Moreover, the relative viability worked out at 1.05 in test [2] (first compound 2.53 µM); 0.791 in test [2] (first compound 8 µM); 0.649 in test [3] (first compound 0.253 µM); 0.665 in test [3] (first compound 0.8 µM); 0.659 in test [3] (first compound 2.53 µM); 0.595 in test [3] (first compound 8 µM). Also, the relative viability in test [4] (first compound 0.253 µM) came out at 1.04; in test [4] (first compound 0.8 µM), 0.971; in test [4] (first compound 2.53 µM), 1.06; in test [4] (first compound 8 µM), 0.959; in test [5] (first compound 0.253 µM), 0.602; in test [5] (first compound 0.8 µM), 0.738. Further, the relative viability is 0.451 in test [5] (first compound 2.53 µM) and 0.653 in test [5] (first compound 8 µM).

For the cell line NCI-H322M, the relative viability in test [1] (first compound 0.253 µM) worked out at 1.37; in test [1] (first compound 0.8 µM), 1.26; in test [1] (first compound 2.53 µM), 1.14; in test [1] (first compound 8 µM), 1.18; in test [2] (first compound 0.253 µM), 0.827; in test [2] (first compound 0.8 µM), 0.998. In addition, the relative viability was determined as 0.876 in test [2] (first compound 2.53 µM); 0.829 in test [2] (first compound 8 µM); 0.239 in test [3] (first compound 0.253 µM); 0.245 in test [3] (first compound 0.8 µM); 0.237 in test [3] (first compound 2.53 µM); 0.255 in test [3] (first compound 8 µM). The relative viability in test [4] (first compound 0.253 µM) is 0.725; in test [4] (first compound 0.8 µM), 0.659; in test [4] (first compound 2.53 µM), 0.722; in test [4] (first compound 8 µM) it was 0.675; in test [5] (first compound 0.253 µM), 0.779; in test [5] (first compound 0.8 µM), 0.692. Moreover, the relative viability is 0.773 in test [5] (first compound 2.53 µM) and 0.725 in test [5] (first compound 8 µM).
